Marks after values point to notes of the source that are not given here. Ends that are not written are not given here.
How the values were obtained:
TCR Vβ8(39-59) peptide = assay type: binding, rat
[1] = system: T cell lines derived from rats protected from EAE; test: Proliferation of LN cells and T cell lines from rats protected by TCR Vβ8 peptide (Table 12); assay type: cell-based, rat
[2] = system: LN cells and T cell lines; test: Proliferation of LN cells and lines from rats protected by transfer of TCR Vβ8 peptide-specific T cells (Table 15); assay type: cell-based, rat
Method: ^1 Lymph node (LN) cells were collected 20 days after simultaneous
^2 LN cells were tested directly (NL column).
^3 T cell lines were selected from these LN cells by culture with TCR

Gp-S49S = molecular target: T1, Gp-S49S (Cavia porcellus, UniProt P25188); test: Direct ELISA, antibody reactivity (Example VII); assay type: binding, guinea pig
T1 construct: Peptide Gp-S49S defines region 69-84 of GPBP and has a C-terminal glycine; made in house; host or cells: chemical solid-phase synthesis

Gp-S53 = molecular target: T2, Gp-S53 (Cavia porcellus, UniProt P25188); test: Direct ELISA, antibody reactivity (Example VII); assay type: binding, guinea pig
T2 construct: Gp-S53 (residues 75-84); made in house; host or cells: chemical solid-phase synthesis

Gp-(S87-99) = molecular target: T3, Gp-(S87-99) (Cavia porcellus, UniProt P25188); test: Direct ELISA, antibody reactivity (Example VII); assay type: binding, guinea pig
T3 construct: made in house; host or cells: chemical solid-phase synthesis

EAE [3] = test: Clinical EAE in rats treated with TCR Vβ8(39-59) before or after onset (Table 22); assay type: in vivo
Method: The ability of the TCR Vβ8(39-59) given either SC (in adjuvant) or ID (in saline) to disrupt the disease process when given at various times after induction of EAE with GPBP was tested (Table 22). […] In both cases, with both routes of injection of the peptide, there was a significant reduction in the duration of the disease, though not in the severity or time of onset. The efficacy of the peptide given in saline via the ID route is of particular importance to human therapy, as it is preferred to SC injection in adjuvant.
In Experiment 2, the time of ID administration of the TCR peptide was varied, as was the dose. […] A delay in onset of the disease was also observed. Furthermore, the percentage of animals showing signs of the disease decreased. A larger dose of the peptide (200 μg) appeared less efficacious than the lower dose, possibly due to a short-term overload of the peptide which could have comprised the immune response generated against the TCR. Treatment with a similarly sized peptide corresponding to an irrelevant TCR had no effect on onset, severity or incidence of EAE, but may have reduced the duration somewhat (last line of Table 22).

passive EAE [4] = test: Transfer of EAE to naive rats by GPBP-selected T cell lines from treated rats; assay type: in vivo
DTH response = test: Delayed hypersensitivity responses to TCR peptides, ear swelling (Table 26); assay type: in vivo, Lewis rats
DTH (ear thickness) = test: DTH to T cells and TCR peptides after clone transfer or peptide immunization (Table 32); assay type: in vivo, rats; conditions: 50 μg TCR peptide
Method: Transfer of DTH and protection: Delayed type hypersensitivity reactions were measured by the ear swelling assay (Offner et al., J. Neuroimmunol. 9: 147)) 24 and 48 h after injection i.d. of 20 μg antigen.
Rats received 5 million activated clone C45569 or clone C5GpBP

DTH (ear swelling) = test: DTH to Vβ8.2-39-59 and Vβ8-44-54 in Vβ8-44-54/CFA immunized rats (Table 34); assay type: in vivo; conditions: rats immunized 14 days with Vβ8-44-54/CFA; net
Method: Transfer of DTH and protection: Delayed type hypersensitivity reactions were measured by the ear swelling assay (Offner et al., J. Neuroimmunol. 9: 147 (1984)) 24 and 48 h after injection i.d. of 20 μg antigen.
Values represent mean ± S.D. of net ear swelling in 6 immunized rats.

passive EAE [5] = test: Treatment of passively induced EAE with TCR Vβ8 peptides (FIGS. 21A, 22); assay type: in vivo, rats
EAE [6] = conditions: rat, in vivo
Method: Male Lewis rats (225250 g) were challenged SC with 100 μg TCR

[7] = system: lymph node cells and Vβ8-44-54 selected T cell line
[8] = A. TCR Vβ8 peptide-specific T cell transfer
[9] = TCR d. 0, Gp-S49S d. 48, bleed d. 74
[10] = TCR day 0, Gp-S(87-99) d. 44, bleed d. 65, 1:320
[11] = TCR peptide d. 0, Gp-S49S d. 48, bleed d. 74, 1:80
[12] = Exp. 1, 100 μg SC in CFA, day 10
[13] = Exp. 1, 100 μg SC in CFA, day 13

DMGHGLRLIHYSYDVNSTEKG [TCR Vβ8(39-59), 21-amino acid CDR2 peptide of rat TCR Vβ8]
absorbance of serum on TCR Vβ8(39-59) peptide (A405) (TCR Vβ8(39-59) peptide): 0.63±0.12 units | T Cell Proliferation ([1]; 1st value column (head not given; LN cells of protected rats)): 27 cpm × 10^-3 | T Cell Proliferation ([1]; 2nd value column (head not given, TCR Vβ8(39-59)-selected line)): 100 cpm × 10^-3 | T Cell Proliferation ([1]; 4th value column (head not given; mixed TCR- and BP-specific T cells)): 140 cpm × 10^-3 | T Cell Proliferation ([1]; +OX-6 (anti I-A)): 99 cpm × 10^-3 | T Cell Proliferation ([1]; +OX-8 (anti-CD8)): 22 cpm × 10^-3 | T Cell Proliferation ([1]; +OX-17 (anti I-E)): 100 cpm × 10^-3 | T Cell Proliferation ([1]; +OX-18 (anti class 1)): 31 cpm × 10^-3 | T Cell Proliferation ([1]; +W3/25 (anti-CD4)): 105 cpm × 10^-3 | T Cell Proliferation ([1]; GPBP-selected line): 1 cpm × 10^-3 | Proliferation, GPBP Selected Line [2, 8]: 6 cpm × 10^-3 | Proliferation, TCR Peptide Selected Line [2, 8]: 52 cpm × 10^-3 | Proliferation, LN ([2]; A. rats given 3 × 10^7 TCR Vβ8 peptide-specific T cells + GPBP/CFA, LN cells day 20): 90 cpm × 10^-3 | Proliferation, GPBP Selected Line ([2]; B. Saline + GPBP/CFA): 6 cpm × 10^-3 | Proliferation, LN ([2]; B. Saline + GPBP/CFA): 8 cpm × 10^-3 | Theoretical Absorbance against Gp-S49S normalized to 1:40 (Gp-S49S; [9]): 1750 Absorbance (×10^3) | Antisera Reactivity Against Gp-S49S (Gp-S49S; [10]): 38 Absorbance (×10^3) | Antisera Reactivity Against Gp-S49S (Gp-S49S; [11]): 875 Absorbance (×10^3) | elevation of 26 day antibody responses to Gp-S49S and Gp-S53 (Gp-S49S; preimmunized with TCR peptide vs rats not treated): two to four fold | Theoretical Absorbance against Gp-S53 normalized to 1:40 (Gp-S53; [9]): 910 Absorbance (×10^3) | Antisera Reactivity Against Gp-S53 (Gp-S53; [10]): 46 Absorbance (×10^3) | Antisera Reactivity Against Gp-S53 (Gp-S53; [11]): 455 Absorbance (×10^3) | Theoretical Absorbance against Gp-(S87-99) normalized to 1:40 (Gp-(S87-99); TCR day 0, Gp-S(87-99) d. 44, bleed d. 65): 784 Absorbance (×10^3) | Antisera Reactivity Against Gp-(S87-99) (Gp-(S87-99); [10]): 348 Absorbance (×10^3) | Antisera Reactivity Against Gp-(S87-99) (Gp-(S87-99); [11]): 11 Absorbance (×10^3) | increase of anti-S87-99 responses (Gp-(S87-99); preimmunized with TCR peptide vs not treated): > 4 fold | Day of Onset (EAE [3]; Exp. 1, 50 μg ID, day 13): 13.4 ± 0.5 | Disease Duration (EAE [3]; Exp. 1, 50 μg ID, day 13): 3.2 ± 0.5 | Disease Incidence (EAE [3]; Exp. 1, 50 μg ID, day 13): 5/5 | Disease Severity (EAE [3]; Exp. 1, 50 μg ID, day 13): 2.6 ± 0.4 | Day of Onset (EAE [3]; [12]): 14.0 ± 0.4 | Disease Duration (EAE [3]; [12]): 3.2 ± 0.4 | Disease Incidence (EAE [3]; [12]): 5/5 | Disease Severity (EAE [3]; [12]): 2.8 ± 0.4 | Day of Onset (EAE [3]; [13]): 13.0 ± 0 | Disease Duration (EAE [3]; [13]): 4.0 ± 0 | Disease Incidence (EAE [3]; [13]): 5/5 | Disease Severity (EAE [3]; [13]): 3.0 ± 0 | Day of Onset (EAE [3]; Exp. 2, 50 μg ID, day 7): 15.0 ± 0.8 | Disease Duration (EAE [3]; Exp. 2, 50 μg ID, day 7): 2.0 ± 2.0 | Disease Incidence (EAE [3]; Exp. 2, 50 μg ID, day 7): 4/6 | Disease Severity (EAE [3]; Exp. 2, 50 μg ID, day 7): 1.7 ± 1.4 | Day of Onset (EAE [3]; Exp. 2, 50 μg ID, day 14): 16.0 ± 1. | Disease Duration (EAE [3]; Exp. 2, 50 μg ID, day 14): 2.3 ± 2.0 | Disease Incidence (EAE [3]; Exp. 2, 50 μg ID, day 14): 4/6 | Disease Severity (EAE [3]; Exp. 2, 50 μg ID, day 14): 1.7 ± 1.5 | Day of Onset (EAE [3]; Exp. 2, 50 μg, day 0): 15.6 ± 2.6 | Disease Duration (EAE [3]; Exp. 2, 50 μg, day 0): 2.3 ± 1.6 | Disease Incidence (EAE [3]; Exp. 2, 50 μg, day 0): 5/6 | Disease Severity (EAE [3]; Exp. 2, 50 μg, day 0): 1.8 ± 1.0 | Day of Onset (EAE [3]; Exp. 2, 200 μg ID, day 13): 14.0 ± 1.4 | Disease Duration (EAE [3]; Exp. 2, 200 μg ID, day 13): 3.0 ± 1.2 | Disease Incidence (EAE [3]; Exp. 2, 200 μg ID, day 13): 6/6 | Disease Severity (EAE [3]; Exp. 2, 200 μg ID, day 13): 2.3 ± 0.8 | Passive EAE Severity (passive EAE [4]; 10^7 BP/1st line cells from treated rats): 0 | Passive EAE N (passive EAE [4]; 10^7 GPBP activated BP/1st line cells from treated rats i.p. into naive rats): 0/3 | Ability to Transfer EAE (passive EAE [4]; GPBP-selected T cells of rats given TCR peptide ID day 13): YES | 48 Hour DTH Response (DTH response; GP-BP/CFA immunized rats, ear test Day 12 (EAE onset)): 11 ± 2 | 48 Hour DTH Response (DTH response; Normal or saline/CFA rats, ear test Day 12): 6 ± 3 | 48 Hour DTH Response (DTH response; TCR Vβ8 peptide/CFA immunized rats, ear test Day 30): 36 ± 8 | 48 Hour DTH Response (DTH response; TCR Vβ814 (so in the source) peptide/CFA immunized rats, ear test Day 30): 6 ± 3 | DTH, change in ear thickness 48 h (DTH (ear thickness); Immunization None): 3 ± 1 | DTH, change in ear thickness 48 h (DTH (ear thickness); rats given 5 million C5Gp-BP (Vβ8.2+)): 6 ± 3 | DTH, change in ear thickness 48 h (DTH (ear thickness); rats given C455-69): 17 ± 2 | DTH, change in ear thickness 48 h (DTH (ear thickness); rats immunized with Vβ8.239-59 peptide/CFA): 39 ± 9 | DTH, change in ear thickness 48 h (DTH (ear thickness); rats immunized with Vβ8.639-59 peptide/CFA): 27 ± 4 | Ear Swelling 24 h (DTH (ear swelling)): 36 ± 8 mm/100 | Ear Swelling 48 h (DTH (ear swelling)): 41 ± 9 mm/100 | severity and duration of passively induced EAE (passive EAE [5]; EAE induced by Vβ8.2+ T cell lines specific for BP): marked reduction in the severity and duration of EAE | protection from lethal EAE (passive EAE [5]; rat, in vivo): protected all of the recipients from lethal EAE | Clinical Signs of EAE (EAE [6]): None | Response of Lymph Node Cells [7]: 38 ± 3 | Response of T Cell Line [7]: 102 ± 10

Reference: US5614192A, “T cell receptor peptides as therapeutics for immune-related disease” (Connective Therapeutics, Inc., priority 1993, dated 1997)
